The results in this text go back to patent US20260234630A1, “Methods for Treating Multiple Myeloma” (Celgene Corporation, priority 2022, published 2026).

Where only a bound is given, the exact number is not on record here.

What all share (assay type): cell-based
The test system of test [1] is UHRF1. Nature of the test: Western blot of UHRF1 protein in MM cells. The protocol:
(§1) FIG. 1A-1F. Down regulation of UHRF1 transcription by IMiDs correlates with drug sensitivity of multiple myeloma. (1A) Volcano plot of protein expression changes determined by mass spectrometry in H929 cells at 24 hr of treatment with CC-220 (0.1 μM) or DMSO control. X axis, Log2fold change (FC); Y axis, significance,-log 10 [p-value]. […] (1B) Volcano plot of gene expression changes determined by Affymetrix microarray in H929 cells treated with POM (1 μM) or DMSO for 24 hr. X axis, Log2fold change (FC); Y axis, significance,-log 10 [p-value], n=2 technical replicates). […] (1C) Western blot analysis protein expression of UHRF1, Ikaros, Aiolos and ZFP91 in H929 cells treated with 1 μM POM for indicated time. (1D) qRT-PCR analysis of UHRF1 gene expression levels in cells as in (1C). Error bars represent the SEM from duplicate measurements. (1E) Western blot analysis protein expression of UHRF1 and indicated proteins in MM cells treated with DMSO (−) or 1 μM POM (+) for 3 days. GAPDH serves as a loading control. (1F) Thymidine incorporation of various MM cell lines treated with indicated dose of POM for 3 days. Error bars represent the SEM from technical replicates.
(§2) FIG. 2A-2E. UHRF1 expression is positively regulated by Ikaros and Aiolos in IMiDs sensitive MM cells. (2A) Western blot analysis protein expression of UHRF1, Ikaros, Aiolos, ZFP91 and Cereblon expression in control [shLuciferase (shLuc)] and cereblon knockdown (shCRBN) H929 cells treated with DMSO and 1 μM POM for 3 days. GAPDH, loading control. Arrow head, UHRF1. (2B) qRT-PCR analysis of UHRF1 gene expression levels in cells as in (2A). Data was normalized to ACTB. Error bars represent the SEM of technical duplicates. *** P<0.001 (Two-tailed unpaired Student's t-test). (2C) Western blot analysis protein expression of UHRF1, Ikaros and Aiolos in stably transduced H929 cells after Dox induction (0, 10, 50 or 100 ng/ml) for 3 days of non-target shRNA (shNT) or shRNAs targeting Ikaros (shIKZF1) or Aiolos (shIKZF3). (2D) qRT-PCR analysis of UHRF1 gene expression levels in cells as in (2C). Shown are cells induced with Dox (50 ng/ml) for 3 days. Data was normalized to GAPDH. Error bars represent the SEM of technical duplicates. *P<0.05, ** P<0.01, *** P<0.001, **** P<0.0001 (Two-tailed unpaired Student's t-test). (2E) ChIP-qPCR analysis of the occupancy Aiolos (upper panel) or H3K27ac (lower panel) occupancy at transcription star site (TSS), gene body (+7 kb) and gene end (GE) of UHRF1 gene in H929, MM1.S or RPMI 8226 cells treated with DMSO or 1 μM POM for 24 hr. ChIP with control rabbit IgG (IgG) serves as a negative control. Error bars represent the SEM of technical triplicates. * P<0.05, ** P<0.01, **** P<0.0001 (Two-tailed unpaired Student's t-test).
FIG. 6A-6D. […]
(A western blot detects proteins with antibodies after separation by electrophoresis.)

Test [2] has as its system Aiolos at UHRF1 promoter. Nature of the test: ChIP-qPCR of Aiolos occupancy at UHRF1 gene. The following applies: H929 cells, 1 μM POM, 24 hr. The protocol:
FIG. 2A-2E. UHRF1 expression is positively regulated by Ikaros and Aiolos in IMiDs sensitive MM cells. (2A) Western blot analysis protein expression of UHRF1, Ikaros, Aiolos, ZFP91 and Cereblon expression in control [shLuciferase (shLuc)] and cereblon knockdown (shCRBN) H929 cells treated with DMSO and 1 μM POM for 3 days. GAPDH, loading control. Arrow head, UHRF1. (2B) qRT-PCR analysis of UHRF1 gene expression levels in cells as in (2A). Data was normalized to ACTB. Error bars represent the SEM of technical duplicates. *** P<0.001 (Two-tailed unpaired Student's t-test). […]
ChIP-qPCR was performed using ChIP-IT Express Enzymatic kit (Active Motif) according to the manufacture manual with some modifications. […] DNA was purified using a PCR purification kit (Qiagen) and analyzed by qPCR using the Power SYBR Green PCR Master Mix.
Procedures afterward were performed according to the manufacture manual. Eluted DNA was purified using a PCR purification kit (Qiagen) and analyzed by quantitative real-time PCR on the Viia 7 Real Time PCR System using the Power SYBR Green PCR master mix (Applied Biosystems). Statistical differences were calculated using a […] unpaired Student's t-test.
(Quantitative PCR measures a nucleic acid by following its amplification.)

The subject of test [3] is UHRF1 mRNA. The test can be described thus: qRT-PCR of UHRF1 gene expression in MM cells. Here is the method: as §1, §2
FIG. 6A-6D. […] (6A) Immunocytochemistry assay of UHRF1 in H929 cells treated with DMSO or 1 μM POM for 48 hrs. (6B) qRT-PCR analysis of UHRF1 gene expression levels in indicated MM cells treated with indicated doses of POM for 3 days. Data was normalized to ACTB. Error bars represent the SEM from duplicate measurements. * P<0.05, ** P<0.01, *** P<0.001, **** P<0.0001 (Two-tailed Student's t-test). […]
Total RNA was extracted by RNeasy Mini Kit (Qiagen) and reverse transcribed by iScrip cDNA Synthesis Kit (Bio-rad). Quantitative real-time PCR (qPCR) was conducted on a VillA 7 System using the Power SYBR Green PCR Master Mix (Applied Biosystems). Gene expression values were calculated by normalization to Actb using the comparative CT method.

The mark [4] stands for this setting: H929 cells, POM 1 μM, time course.
[5] abbreviates: shCRBN vs shLuc H929 cells, 1 μM POM, 3 days.

In the case of `Nc1cccc2c1C(=O)N(C1CCC(=O)NC1=O)C2=O` (stereo not drawn) [POM, pomalidomide], the “time to profound reduction of UHRF1 protein level” value in test [1] (setting [4]) was not above 48 h. Further, the UHRF1 protein levels entry in test [1] (MC/CAR and RPMI 8226 cells, 1 μM POM, 3 days) is on record as “without affecting”. Further, the UHRF1 expression level result in test [1] (sensitive cell lines H929, MM1.S, DF15 and U266, 1 μM POM, 72 hours) is recorded as “downregulated”. Besides, the “downregulation of UHRF1 protein by POM under cereblon knockdown” value in test [1] (setting [5]) is on record as “rescued”. Further, the “UHRF1 promoter occupancy of Aiolos” value in test [2] is “drastically reduced”. Also, in test [3] (H929, MM1.S and U266 cells, indicated doses of POM, 3 days), the “UHRF1 mRNA” value is reported as “dose dependent downregulation”. For the same compound, the “time to profound reduction of UHRF1 mRNA level” value in test [3] (setting [4]) was “up to 24 hours”. For the same compound, the UHRF1 gene expression entry in test [3] (drug sensitive MM (FIG. 6 title)) was “downregulated”. The “downregulation of UHRF1 mRNA by POM under cereblon knockdown” value in test [3] (setting [5]) is listed as “rescue”.
